Reference: US6043246A, “Urea derivatives” (Banyu Pharmaceutical Co., Ltd., priority 1996, dated 2000)

Target: T1, human NPY Y5 receptor (Homo sapiens, UniProt Q15761)
T1 construct: expressed in transfected cells; host or cells: COS-7, CHO and LM(tk-) cells (ATCC); vectors pcDNA3, pRc/RSV, pCI-neo; membrane preparations
T1 sequence (Q15761 1-445): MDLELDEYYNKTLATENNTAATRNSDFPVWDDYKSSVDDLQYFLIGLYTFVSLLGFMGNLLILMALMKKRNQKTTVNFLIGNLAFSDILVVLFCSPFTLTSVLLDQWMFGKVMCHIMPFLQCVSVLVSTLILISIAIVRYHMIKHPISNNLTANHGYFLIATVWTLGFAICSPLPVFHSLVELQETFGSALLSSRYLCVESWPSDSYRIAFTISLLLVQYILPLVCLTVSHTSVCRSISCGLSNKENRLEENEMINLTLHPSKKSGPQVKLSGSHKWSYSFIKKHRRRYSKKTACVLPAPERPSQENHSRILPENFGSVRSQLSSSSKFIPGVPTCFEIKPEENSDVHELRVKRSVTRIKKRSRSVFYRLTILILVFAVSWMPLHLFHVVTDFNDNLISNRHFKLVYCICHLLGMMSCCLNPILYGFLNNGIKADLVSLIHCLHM
Experiment: Test of Inhibition of NPY Binding ([125I] peptide YY binding to membrane preparations)
Settings: membranes of cells expressing NPY Y5 receptor, 25° C., 2 hours, read-out: concentration needed to inhibit 50% of the specific binding of peptide YY (IC50 value)
Text: cDNA Sequence encoding a human NPY Y5 receptor [International Publication WO 96/16542] was cloned into expression vectors pcDNA3, pRc/RSV (manufactured by Invitrogen) and pCI-neo (manufactured by Promega). Using the cationic lipid method [see Proceedings of the National Academy of Science of the United States of America, vol.84, p.7413 (1987)], host cells COS-7, CHO and LM(tk-) (American Type Culture Collection) were transfected with the thus prepared expression vectors to obtain cells in which the NPY Y5 receptor had been expressed.
Each of the membrane preparations thus prepared from the cells in which the NPY Y5 receptor had been expressed was incubated together with each compound to be tested and 20,000 cpm of [^125 I] peptide YY (manufactured by Amersham) at 25° C. for 2 hours in an assay buffer solution (25 mM HEPES buffer, pH 7.4, containing 10 mM magnesium chloride, 1 mM phenylmethylsulfonyl fluoride and 0.1% bacitracin) and then, the reaction mixture was filtered through a glass filter GF/C. After washing with 50 mM Tris buffer, pH 7.4, containing 0.3% BSA, radioactivity on the glass filter was measured using a gamma counter. […] As the result, IC50 value of the compound of Example 17 was calculated to be […].

**Q.** How did the IC50 turn out when `COc1ccc(-c2cc(NC(=O)N3CCN(c4cccc(Cl)c4)CC3)[nH]n2)cc1` [Example 17, 3-[4-(3-chlorophenyl)piperazinyl]carbonylamino-5-(4-methoxyphenyl)pyrazole] was run?
**A.** 27 nM
